Measurements: PMC8742957, “Functional signaling test identifies HER2 negative breast cancer patients who may benefit from c-Met and pan-HER combination therapy” (Cell Communication and Signaling : CCS, 2022)
Read-outs that look alike come from different tables or passages of the source. Each block holds one compound with its values, some of them ahead of it.

Key:
[1] = tested on: HER-family receptors; experiment: CELsignia real-time live cell IC50 titration of pan-HER inhibitors against NRG1b/EGF stimulation, primary breast cancer cells; type: cell-based, human; details: six primary breast cancer cell samples with hyperactive HER- and c-Met signaling; inhibitor 18 h before NRG1b/EGF; Poziotinib three, Tucatinib five samples
Procedure: Owing to limited numbers of non-passaged or low passaged primary cells, 1000-fold, five-point dose response for antagonists to HER-family and c-Met receptors was performed for each corresponding agonist stimulus (i.e. NRG1b/EGF for HER-family activation and HGF for c-Met activation) in a live-cell CELsignia assay and the observed values were averaged. Drug additions were made 18 h prior to agonist addition. The measurand recording period of four hours began after the agonist addition. Response was plotted as a percent of the maximum response to the agonist observed in the absence of any antagonist using GraphPad Prism software and IC50 values were derived using non-linear regression.
A representative dose–response curve of cells from patient R66 to stimulation with NRG1b/EGF following pre-treatment with the indicated antagonists is shown in Fig. 4a. A total of six primary cell lines isolated from as many patients were included in this IC50 titration test and the average values are summarized in Table 1. The IC50 values for pan-HER antagonists against NRG1b/EGF stimulation determined from our real-time live cell assay align with what was previously reported in cell-free assays.

[2] = tested on: HCC1954 xenograft; details: NSG mice; for Tumor reduction, drug arm versus control: oral gavage QD 21 doses, Neratinib 40, Tepotinib 50, Erlotinib 25 mg/kg
Procedure: A selection of an appropriate cell line was necessary owing greatly to the limited commercially available tumorigenic breast cancer mouse models with the abnormal signaling function of interest to this study. Female NSG (NOD SCID gamma; NOD.Cg-Prkdc^scid Il2rg^tm1Wjl/SzJ) mice were procured from Jackson Labs (Bar Harbor, Maine, USA). The mice were injected in their fat pad with HCC1954 cells dissolved in 150 µL of a 50% Matrigel solution. Tumors were allowed to form until they reached a minimum average size of 150 mm^3. At this time, the tumor bearing cohort was divided up into 10-mouse treatment groups of uniform distribution of tumor sizes, just prior to initiating treatment. Tumor size and body weights were measured a minimum of twice per week. Upon completion of the study period, the mice were euthanized for necropsy and sample/tissue collection at the study endpoint or when tumor size reached ≥ 2 cm^3.
Female NSG mice, 4–5 weeks old, were injected subcutaneously in the left mammary fat pad with two million HCC1954 cells. After the average tumor volume reached 150 mm^3 the mice were randomly assigned into six cohorts of 10 mice each (n = 10). Each of the experimental mice were dosed by oral gavage with 100 µL dosing solution daily (QD) for 21 days (21 doses). […] In order to determine the effects of the pan-HER and c-Met antagonists on tumor size, the tumor volume (in mm^3) was measured and plotted as shown in Fig. 8b.

[3] = molecular target: T1, c-Met (Homo sapiens, UniProt P08581); experiment: Cross-talk analysis, inhibition of HGF signal in patient primary tumor cells (CELsignia); details: HGF 50 pM, Erlotinib 500 nM, Tucatinib 250 nM, Tepotinib 50 nM, four-hour period
T1 sequence (P08581 25-1390): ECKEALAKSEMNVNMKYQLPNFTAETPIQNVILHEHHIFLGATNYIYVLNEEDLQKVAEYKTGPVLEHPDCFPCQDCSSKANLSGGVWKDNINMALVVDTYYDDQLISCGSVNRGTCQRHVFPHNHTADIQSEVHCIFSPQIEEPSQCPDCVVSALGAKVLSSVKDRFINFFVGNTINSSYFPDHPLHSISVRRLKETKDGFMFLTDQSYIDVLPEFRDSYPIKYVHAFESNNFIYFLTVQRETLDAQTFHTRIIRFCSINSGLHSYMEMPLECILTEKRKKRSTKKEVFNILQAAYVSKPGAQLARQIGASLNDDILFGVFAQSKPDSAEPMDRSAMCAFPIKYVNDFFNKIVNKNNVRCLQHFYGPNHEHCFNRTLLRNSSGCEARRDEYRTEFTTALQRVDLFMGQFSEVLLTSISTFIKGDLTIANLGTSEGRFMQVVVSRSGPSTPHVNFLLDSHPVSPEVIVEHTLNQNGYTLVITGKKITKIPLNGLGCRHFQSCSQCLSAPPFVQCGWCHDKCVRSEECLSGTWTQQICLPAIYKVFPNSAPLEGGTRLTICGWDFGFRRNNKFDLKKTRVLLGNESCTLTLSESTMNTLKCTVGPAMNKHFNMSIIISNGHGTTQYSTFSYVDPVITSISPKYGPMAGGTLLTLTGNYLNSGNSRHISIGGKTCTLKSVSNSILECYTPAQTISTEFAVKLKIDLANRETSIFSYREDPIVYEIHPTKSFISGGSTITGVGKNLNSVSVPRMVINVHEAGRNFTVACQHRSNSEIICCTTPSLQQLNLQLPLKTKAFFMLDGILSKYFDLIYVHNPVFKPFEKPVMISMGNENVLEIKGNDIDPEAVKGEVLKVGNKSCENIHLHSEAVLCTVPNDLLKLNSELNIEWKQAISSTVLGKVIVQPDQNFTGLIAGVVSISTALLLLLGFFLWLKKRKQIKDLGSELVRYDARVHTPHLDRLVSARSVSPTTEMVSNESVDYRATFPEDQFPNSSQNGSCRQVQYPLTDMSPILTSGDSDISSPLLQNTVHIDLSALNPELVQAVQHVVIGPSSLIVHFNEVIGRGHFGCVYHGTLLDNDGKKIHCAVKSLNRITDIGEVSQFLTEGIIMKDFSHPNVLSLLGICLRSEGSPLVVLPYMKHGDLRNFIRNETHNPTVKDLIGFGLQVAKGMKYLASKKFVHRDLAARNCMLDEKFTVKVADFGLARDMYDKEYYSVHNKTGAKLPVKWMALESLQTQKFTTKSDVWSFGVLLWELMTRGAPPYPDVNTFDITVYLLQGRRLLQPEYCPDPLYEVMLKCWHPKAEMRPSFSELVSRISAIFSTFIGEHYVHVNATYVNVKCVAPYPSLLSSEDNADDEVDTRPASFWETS

[4] = tested on: HER/c-met signaling in HCC1954 cells; experiment: CELsignia analysis of HCC1954 cells, antagonists against cocktail of agonists (NRG, EGF, HGF); type: cell-based, human; details: cocktail NRG 3 nM, EGF 0.3 nM, HGF 50 pM, errors are standard deviation
Procedure: During the combined drug testing, we investigated the benefit of targeting HER1 specifically in combination with c-Met.
2.5 3x GF (N RG 3 n M, E G F 0. 3 nM , HG F 50 p M)
Fig. S6: Impedance time course example for antagonist effects on a cocktail of agonists
(NRG, EGF and HGF) for HCC1954 used to derive data in Table 7 (N of 4 experiments).
Also included on the plot timecourse are cells only (HSSM, red line) untreated by agonist

[5] = molecular target: T1, c-Met; experiment: cell-based
[6] = tested on: BT-20 cells; experiment: Flow cytometry of cell toxicity markers, BT-20; type: cell-based, human; details: 250 nM, singly or in combination, 16h
Procedure: (§1) For analysis of cell toxicity, single cell suspensions were stained with TMRE (200 nM for 30 min), washed with FACS buffer, and stained with Annexin V-AlexaFluor647 (Biolegend; San Diego, CA) following the manufacturers’ instructions. The TMRE/Annexin V stained cells were resuspended in FACS buffer containing Sytox Blue (Thermo Fisher; Waltham, MA) and analyzed on a Novocyte 3000 FACS instrument and NovoExpress software (Agilent; Santa Clara, CA). For analysis of intracellular phosphoproteins by FACS, cells were stained using a Live/Dead fixable dye (Zombie NIR; BioLegend), fixed using 1.6% paraformaldehyde, permeabilized with cold-methanol, and then stained using antibodies towards AKT-pS473 (Cell Signaling Technology; Danvers, MA) and FAK-pS910 (BD Biosciences) (Table S2) prior to FACS analysis.
Figure S7. CELsignia test is more sensitive and rapid for detecting anti-cancer drug efficacy compared to biological correlates – Normal signaling cell line, BT-20. BT-20 cells were normal signaling for HER and c-Met by the CELsignia test. To test flow cytometry markers for correlation a test was setup following the dose and time parameters used for the CELsignia test. The cells […]
(250 nM) and neratinib (250 nM), either singly or in combination, as indicated. Cells were harvested and then analyzed by flow cytometry for the markers shown following a period of 16h […]
(§2) (1 picture or pasted object on this page, not shown here)
Figure S9. CELsignia test is more sensitive and rapid for detecting anti-cancer drug efficacy compared to biological correlates – Normal signaling cell line, BT20 continued. BT-20 cells […]
Figure S11. CELsignia test is more sensitive and rapid for detecting anti-cancer drug efficacy compared to biological correlates – Normal signaling cell line, BT-20 continued. BT-20 cells

[7] = tested on: AKT-pS473 and FAK-pS910 in HCC1954 cells; experiment: Intracellular phospho-flow cytometry of AKT-pS473 and FAK-pS910, HCC1954; type: cell-based, human; details: 16 h
[8] = tested on: A549 cells; experiment: Flow cytometry of cell toxicity markers, A549, 72 h; type: cell-based, human; details: neratinib and/or tepotinib
Procedure: For analysis of cell toxicity, single cell suspensions were stained with TMRE (200 nM for 30 min), washed with FACS buffer, and stained with Annexin V-AlexaFluor647 (Biolegend; San Diego, CA) following the manufacturers’ instructions. The TMRE/Annexin V stained cells were resuspended in FACS buffer containing Sytox Blue (Thermo Fisher; Waltham, MA) and analyzed on a Novocyte 3000 FACS instrument and NovoExpress software (Agilent; Santa Clara, CA). […]
marker resistance to prolonged drug treatment – Normal signaling cell line, A549. A549 cell […]
A549 cells were treated with neratinib […]
(§3) cytometry for cell death using Sytox Blue, apoptosis marker annexin V, and mitochondrial potential by TMRE staining. Flow cytometry histogram plots are representative of at least two […]
(§4) according to these markers.
as §2

[9] = tested on: MDA-MB-231 cells; experiment: Flow cytometry of cell toxicity markers, MDA-MB-231; type: cell-based, human; details: 250 nM, singly or in combination, 16h
Procedure: as §1
Figure S8. CELsignia test is more sensitive and rapid for detecting anti-cancer drug efficacy compared to biological correlates – Normal signaling cell line, MDA-MB-231. MDA-MB-231 cells were normal signaling for HER and c-Met by the CELsignia test. To test flow cytometry markers for correlation a test was setup following the dose and time parameters used for the CELsignia test. The cells were seeded in collagen-fibrinogen (CF) coated culture plates and treated […]
indicated. Cells were harvested and then analyzed by flow cytometry for the markers shown following a period of 16h drug treatment. […]
these drugs according to the Sytox blue marker.
as §2
Figure S10. CELsignia test is more sensitive and rapid for detecting anti-cancer drug efficacy compared to biological correlates – Normal signaling cell line, MDA-MB-231 continued.
MDA-MB-231 cells were seeded in collagen-fibrinogen (CF) coated culture plates and treated 6h […]
Cells were harvested and then analyzed by flow cytometry for the markers shown following a period of 16h drug treatment. […]
according to annexin V marker.
Figure S12. CELsignia test is more sensitive and rapid for detecting anti-cancer drug efficacy […]
according to TMRE marker.

[10] = tested on: BT-474 cells; experiment: Flow cytometry of cell toxicity markers, BT-474, 72 h; type: cell-based, human; details: neratinib and/or tepotinib
Procedure: as §1, with “analysis. […]” for “analysis.”
marker resistance to prolonged drug treatment – Normal signaling cell line, BT474. BT-474 […]
These cell lines were treated with neratinib […]
as §3, §4, §2

[11] = tested on: HER-family and c-Met receptors; experiment: CELsignia inhibition of combined NRG/EGF/HGF cocktail signal, patient breast cancer cells; type: cell-based, human; details: patient C135; Neratinib 500 nM, tepotinib 50 nM; compared to growth factor only well
Procedure: To simulate this multiplexed perturbant condition and test the ability of the different targeted drugs to attenuate abnormal signaling from multiplexed agonists, patient breast cancer cells were stimulated with a growth factor cocktail of EGF, NRG1b, and HGF (N/E/H) to simultaneously initiate signaling via the HER-family and c-Met receptors. […] Cell index signaling units were calculated relative to the baseline values obtained from cells that were not treated with either agonists or antagonists.

[12] = tested on: HER-family (EGF stimulation); experiment: Impedance test IC50 with single growth factor EGF (set-up of median effects, HCC1954); type: cell-based, human; details: neratinib + EGF
Source text: Fig. S5: Median effects plots.
EGF on HCC1954. When CI>1,
and Talalay. CI<1 is indicative of synergy. C) Antagonist median effects plot of patient sample
indicative of additivity; CI<1 is indicative of synergy.

[13] = read-out: Percent inhibition of growth factor signal, patient C753
[14] = read-out: Percent inhibition of growth factor signal, patient C1061
[15] = read-out: Percent inhibition of growth factor signal, patient R66

Compound: C#Cc1cccc(Nc2ncnc3cc(OCCOC)c(OCCOC)cc23)c1 [Erlotinib]
Tumor reduction, drug arm versus control [2]: 5% (p = 0.870)
inhibition at 0.5 µM [3, 13]: 15%
inhibition at 0.5 µM [3, 14]: 7%
inhibition at 0.5 µM [3, 15]: 38%
HER/c-met inhibition (%) [4]: 9.2 ± 10.3 (n = 2) %

Compound: C[C@@H](c1ccc2nccn2c1)n1nnc2ncc(-c3cnn(C)c3)nc21 [Savolitinib]
IC50 [5]: 3.56 nM

Compound: CCOc1cc2ncc(C#N)c(Nc3ccc(OCc4ccccn4)c(Cl)c3)c2cc1NC(=O)/C=C/CN(C)C [Neratinib]
Response according to TMRE marker [6]: do not respond
Response according to annexin V marker [6]: do not respond
Response according to the Sytox blue marker [6]: do not respond
distribution of pFAK high cells [7]: not significantly altered
frequency of pAKT high cells ([7]; singly and in combination with tepotinib): dose-dependent decline
Tumor reduction, drug arm versus control [2]: 54% (p = 0.003)
Tumor reduction, drug arm versus control ([2]; listed as neratinib): 54%
Response according to Sytox Blue, annexin V and TMRE markers [8]: do not respond
Response according to TMRE marker [9]: do not respond
Response according to annexin V marker [9]: do not respond
Response according to the Sytox blue marker [9]: do not respond
Response according to Sytox Blue, annexin V and TMRE markers [10]: do not respond
Order of efficacy against response to simultaneous NRG, EGF and HGF [11]: more efficacious
IC50 [1]: 4.81 nM
IC50 [12]: 15 nM
HER/c-met inhibition (%) [4]: 14.6 ± 29.6 (n = 4) %

Compound: CN1CCC(COc2cnc(-c3cccc(Cn4nc(-c5cccc(C#N)c5)ccc4=O)c3)nc2)CC1 [Tepotinib]
Response according to TMRE marker [6]: do not respond
Response according to annexin V marker [6]: do not respond
Response according to the Sytox blue marker [6]: do not respond
effect on pFAK and pAKT population distributions ([7]; single agent): no detectable dose-dependent effect
Tumor reduction, drug arm versus control [2]: 10% (p = 0.780)
Adverse observations in treated cohort ([2]; oral gavage QD, Tepotinib 50 mg/kg, Neratinib + Tepotinib 40 + 50 mg/kg): ^#Due to weight loss, 1 mouse given 3 day dose holiday due, and 1 mouse given 7 day dose holiday
Response according to Sytox Blue, annexin V and TMRE markers [8]: do not respond
Response according to TMRE marker [9]: do not respond
Response according to annexin V marker [9]: do not respond
Response according to the Sytox blue marker [9]: do not respond
Response according to Sytox Blue, annexin V and TMRE markers [10]: do not respond

Compound: Cc1cc(Nc2ncnc3ccc(NC4=NC(C)(C)CO4)cc23)ccc1Oc1ccn2ncnc2c1 [Tucatinib]
inhibition at 0.25 µM [3, 13]: -6%
inhibition at 0.25 µM [3, 14]: -13%
inhibition at 0.25 µM [3, 15]: 25%
IC50 [1]: 333 nM

Now from value to compound:

IC50 [1]: 137 nM
Compound: CS(=O)(=O)CCNCc1ccc(-c2ccc3ncnc(Nc4ccc(OCc5cccc(F)c5)c(Cl)c4)c3c2)o1 [Lapatinib]

IC50 [1]: 13.1 nM
Compound: C=CC(=O)N1CCC[C@@H](n2nc(-c3ccc(Oc4ccccc4)cc3)c3c(N)ncnc32)C1 [Ibrutinib]

IC50 [1]: 41.3 nM
Compound: CNC(=O)CN1CCC(Oc2cc3c(Nc4cccc(Cl)c4F)ncnc3cc2OC)CC1 [Sapitinib]

IC50 [1]: 1.23 nM
Compound: C=CC(=O)N1CCC(Oc2cc3c(Nc4ccc(Cl)c(Cl)c4F)ncnc3cc2OC)CC1 [Poziotinib]

IC50 [1]: 22.1 nM
Compound: COc1cc2ncnc(Nc3ccc(F)c(Cl)c3)c2cc1NC(=O)/C=C/CN1CCCCC1 [Dacomitinib]
